Assay [1] deals with permeability transition pore (PTP). In words: Swelling of isolated mitochondria (large amplitude swelling, 90° light scattering). On the set-up: key to Induction of Mitochondrial swelling (sw): +++ rapid sw; ++ low sw; + very low sw; − no sw t 20 min. The note with it: for Induction of Mitochondrial swelling (sw): 5 μM, 20 min, isolated mitochondria. In kind it is biochemical, rat. As for the experimental part:
Mitochondria are purified from rat liver, as described (Costantini et al., 1996), and resuspended in 250 mM sucrose+0.1 mM EGTA+10 mM-tris[hydroxymethyl]methyl-2-Aminoethanesulfonic acid, pH=7.4). For the induction of PT, mitochondria (0.5 mg protein per ml) are resuspended in PT buffer (200 mM sucrose, 10 mM Tris-MOPS (pH 7.4), 5 mM Tris-succinate, 1 mM Tris-phosphate, 2 μM rotenone, and 10 μM EGTA-Tris), and monitored in an F4500 fluorescence spectrometer (Hitachi, Tokyo, Japan) for the 90° light scattering of light ([…]), 1 μM cyclosporin A (CsA; Novartis, Basel, Switzerland), 5 μM CaCl2, and/or 0.5 to 20 μM of pTarg-pTox or pTarg-pSave. For the determination of the ΔΨm, mitochondria (0.5 mg protein per ml) are incubated in a buffer supplemented with 1 μM rhodamine 123 (Molecular Probes, Eugene, Oreg.) and the dequenching of rhodamine fluorescence (excitation 505 nm, emission 525 nm) is measured as described (Shimizu et al, 1998). Supernatants from mitochondria (6800 g for 15 min; then 20 000 g for 1 h; 4° C.) are frozen at −80° C. until determination of apoptogenic activity on isolated nuclei, DEVD-afc cleaving activity, and immunodetection of cytochrome c and AIF. Cytochrome c and AIF are detected by means of a monoclonal antibody (clone 7H8.2C12, Pharmingen) and a polyclonal rabbit anti-serum (Susin et al. 1999) respectively.

For a further assay, the system named is Purified VDAC. Put plainly: Surface plasmon resonance, immobilised peptides with purified VDAC. It counts as binding. The note with it: for specific binding of VDAC: 50 nM VDAC. As for the experimental part: (§1) Sensor Chips SA (streptavidin coated sensor chips) were used for immobilisation of the different peptides. Tox1 was immobilised at a density of 0.7 ng/mm^2, Tox0 at a density of 3.7 ng/mm^2,. Ctr1Tox0 at a density of 1.4 ng/mm^2, Tox5 at a density of 1 ng/mm^2, Tox6 at a density of 1 ng/mm2, Save1 at a density of 1.3 ng/mm^2, and the control peptide at a density of 0.8 ng/mm^2. Association and dissociation kinetics of ANT and VDAC interactions were followed at a rate of 10 μL/min for 10 minutes (5 minutes association and 5 minutes dissociation). The ligand was regenerated with a 1 minute flux of KSCN 3M. The obtained sensorgrams were analysed by the BlAeval 3.1 software using the method of double references (Myszka D. G. 2000. Kinetic, equilibrium and thermodynamic analysis of macromolecular interactions with BIACORE. Methods Enzymol. 323:325-340). From the sensorgrams with the ligands were first substracted the sensorgrams obtained with the corresponding analyte solvents. A second substraction was performed with the sensorgrams obtained with the control peptide ligand. The control peptide for the Tox and Save peptides was biot-H19C corresponding to the sequence of the β2-adrenergic receptor (Lebesgue D., Wallukat G., Mijares A., Granier C., Argibay J., and Hoebeke J. (1998) An agonist-like monoclonal antibody to the human β 2-adrenergic receptor. Eur.J. Pharmacol. 348:123-133). The control peptide for Tox0 was Ctr1Tox0.
(Surface plasmon resonance follows binding to a sensor surface in real time, without labels.)

Another assay addresses T1, Purified ANT (Rattus norvegicus, UniProt Q05962).
T1 sequence (Q05962 1-298): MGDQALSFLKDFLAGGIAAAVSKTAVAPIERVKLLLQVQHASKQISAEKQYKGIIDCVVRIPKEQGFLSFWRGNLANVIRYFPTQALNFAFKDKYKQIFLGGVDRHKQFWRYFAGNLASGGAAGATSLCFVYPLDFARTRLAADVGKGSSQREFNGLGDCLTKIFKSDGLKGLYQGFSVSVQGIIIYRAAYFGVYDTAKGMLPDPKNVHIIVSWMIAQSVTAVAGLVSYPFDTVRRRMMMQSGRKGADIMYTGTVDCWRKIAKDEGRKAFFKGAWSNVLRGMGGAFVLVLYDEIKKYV
In words: biochemical. In kind it is binding. As for the experimental part:
as §1

Assay [2] has as its target T2, adenine nucleotide translocator (ANT), purified from rat heart mitochondria (rat), Q05962.
T2 chain: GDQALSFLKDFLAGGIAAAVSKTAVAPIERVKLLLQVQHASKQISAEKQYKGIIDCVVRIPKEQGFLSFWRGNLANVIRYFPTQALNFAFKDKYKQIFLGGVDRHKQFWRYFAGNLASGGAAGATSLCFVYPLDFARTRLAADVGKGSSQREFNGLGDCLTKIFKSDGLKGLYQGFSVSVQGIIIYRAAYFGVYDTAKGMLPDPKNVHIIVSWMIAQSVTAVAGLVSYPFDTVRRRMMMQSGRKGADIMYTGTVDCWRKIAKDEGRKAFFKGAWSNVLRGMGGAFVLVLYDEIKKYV
Put plainly: SPR (BIAcore), peptide on streptavidin chip, ANT as analyte at one concentration (50 nM).

For assay [3], the target named is T2, adenine nucleotide translocator (ANT), ….

Ends that are not written are not given here. Peptide text beside a SMILES is read from it. * marks the point of attachment. Biotin = O=C1N[C@H]2[C@H](CS[C@H]2CCCCC(=O)*)N1

The results in this text go back to patent US20030077826A1, “Chimeric molecules containing a module able to target specific cells and a module regulating the apoptogenic function of the permeability transition pore complex (PTPC)” (priority 2001, published 2003).

As usually defined, the Kd is the equilibrium constant for the complex coming apart.

As to `C=C1[C@@H]2CC[C@H]3[C@]4(C)C[C@H](O[C@@H]5O[C@H](CO)[C@@H](OS(=O)(=O)O)[C@H](OS(=O)(=O)O)[C@H]5OC(=O)CC(C)C)C[C@@H](C(=O)O)[C@H]4CC[C@]3(C2)[C@H]1O` [Atractyloside, atractyloside, reference compound], the “Mitrochondrial swelling (sw) %” value in assay [1] (600 μM alone) is recorded as 110%.

Consider `[Ca+2]` [Ca 2 +, reference compound], for which the “Mitrochondrial swelling (sw) %” value in assay [1] (100 μM alone) was 100%. On to `C[C@H](NC(=O)[C@H](Cc1ccccc1)NC(=O)[C@H](Cc1ccc(O)cc1)NC(=O)[C@H](CCCNC(=N)N)NC(=O)[C@H](Cc1c[nH]c2ccccc12)NC(=O)[C@H](Cc1ccccc1)NC(=O)[C@H](CCC(N)=O)NC(=O)[C@@H](NC(=O)[C@H](CCCNC(=N)N)NC(=O)[C@H](CCCCN)NC(=O)[C@H](CC(=O)O)NC(=O)[C@H](CCCNC(=N)N)NC(=O)[C@H](CCCNC(=N)N)NC(=O)[C@H](CCCNC(=N)N)NC(=O)[C@H](CCC(N)=O)NC(=O)[C@H](CCCNC(=N)N)NC(=O)[C@H](CCCNC(=N)N)NC(=O)[C@H](CCCCN)NC(=O)[C@H](CCCCN)NC(=O)[C@H](CCCNC(=N)N)NC(=O)CCCC[C@@H]1SC[C@@H]2NC(=O)N[C@@H]21)[C@@H](C)O)C(=O)NCC(=O)N[C@@H](CC(N)=O)C(=O)O` [Save1, Biot-RKKRRQRRR-DKRTQFWRYFAGN (hANT2)] (Biotin-RKKRRQRRRDKRTQFWRYFAGN-OH; C-terminus assumed), for which, in the assay on Purified VDAC, the “specific binding of VDAC” value is recorded as “did not result in any specific binding”. Further, the equilibrium dissociation constant (Kd) on Purified ANT was 0.01 nM. For the same molecule, the “Mitrochondrial swelling (sw) %” value was 5% in assay [1] (5 μM + Atr 600 μM), 2% in assay [1] (5 μM alone), 12% in assay [1] (20 μM + Atr 600 μM) and 12% in assay [1] (20 μM alone). On Purified ANT, `CC[C@H](C)[C@H](NC(=O)CNC(=O)[C@@H](NC(=O)[C@H](CCCNC(=N)N)NC(=O)[C@H](CO)NC(=O)[C@H](Cc1c[nH]cn1)NC(=O)[C@H](CCCNC(=N)N)NC(=O)[C@H](CS)NC(=O)CNC(=O)[C@@H](NC(=O)[C@H](CCCNC(=N)N)NC(=O)[C@H](Cc1ccccc1)NC(=O)[C@H](Cc1c[nH]cn1)NC(=O)[C@@H](NC(=O)[C@H](Cc1ccccc1)NC(=O)[C@H](CC(C)C)NC(=O)[C@H](CC(C)C)NC(=O)[C@H](CCC(N)=O)NC(=O)[C@H](CCC(N)=O)NC(=O)[C@H](CC(C)C)NC(=O)[C@@H](NC(=O)[C@H](CCCNC(=N)N)NC(=O)[C@@H](NC(=O)[C@H](CC(C)C)NC(=O)[C@H](C)NC(=O)[C@H](CCC(=O)O)NC(=O)[C@@H](NC(=O)CNC(=O)[C@@H](NC(=O)[C@H](Cc1c[nH]c2ccccc12)NC(=O)[C@@H](NC(=O)[C@H](CC(=O)O)NC(=O)CCCC[C@@H]1SC[C@@H]2NC(=O)N[C@@H]21)[C@@H](C)O)[C@@H](C)O)C(C)C)[C@@H](C)CC)[C@@H](C)CC)[C@@H](C)CC)[C@@H](C)CC)[C@@H](C)CC)C(=O)N[C@H](C(=O)N[C@@H](CCC(N)=O)C(=O)N[C@@H](CCC(N)=O)C(=O)N[C@@H](CCCNC(=N)N)C(=O)N[C@@H](CCCNC(=N)N)C(=O)N[C@H](C(=O)N[C@@H](CCCNC(=N)N)C(=O)N[C@@H](CC(N)=O)C(=O)NCC(=O)N[C@@H](C)C(=O)N[C@@H](CO)C(=O)N[C@@H](CCCCN)C(=O)N[C@@H](CO)C(=O)O)[C@@H](C)O)[C@@H](C)CC` [Tox0] returned a Kd of 0.15 nM. For the molecule `C[C@@H](O)[C@H](NC(=O)[C@H](CCCNC(=N)N)NC(=O)[C@H](CCCCN)NC(=O)[C@H](CC(=O)O)NC(=O)CNC(=O)CNC(=O)[C@H](CS)NC(=O)[C@H](CCCNC(=N)N)NC(=O)CNC(=O)[C@H](CC(N)=O)NC(=O)[C@H](CS)NC(=O)CCCC[C@@H]1SC[C@@H]2NC(=O)N[C@@H]21)C(=O)N[C@@H](CCC(N)=O)C(=O)N[C@@H](Cc1ccccc1)C(=O)N[C@@H](Cc1c[nH]c2ccccc12)C(=O)N[C@@H](CCCNC(=N)N)C(=O)N[C@@H](Cc1ccc(O)cc1)C(=O)N[C@@H](Cc1ccccc1)C(=O)N1CCC[C@H]1C(=O)NCC(=O)N[C@@H](CC(N)=O)C(=O)O` [Tox5, Biot-CNGRC-GG-DKRTQFWRYFPGN (hANT2m)] (Biotin-CNGRCGGDKRTQFWRYFPGN-OH; N-terminus and C-terminus assumed), the “specific binding of VDAC” value in the assay on Purified VDAC is reported as “did not result in any specific binding”. In assay [1], the “Induction of Mitochondrial swelling (sw)” value is listed as “++”. Consider `C[C@H](NC(=O)CCCC[C@@H]1SC[C@@H]2NC(=O)N[C@@H]21)C(=O)N[C@@H](CS)C(=O)N[C@@H](CC(=O)O)C(=O)N[C@@H](CS)C(=O)N[C@@H](CCCNC(=N)N)C(=O)NCC(=O)N[C@@H](CC(=O)O)C(=O)N[C@@H](CS)C(=O)N[C@@H](Cc1ccccc1)C(=O)N[C@@H](CS)C(=O)NCC(=O)NCC(=O)N[C@@H](CC(=O)O)C(=O)N[C@@H](CCCCN)C(=O)N[C@@H](CCCNC(=N)N)C(=O)N[C@H](C(=O)N[C@@H](CCC(N)=O)C(=O)N[C@@H](Cc1ccccc1)C(=O)N[C@@H](Cc1c[nH]c2ccccc12)C(=O)N[C@@H](CCCNC(=N)N)C(=O)N[C@@H](Cc1ccc(O)cc1)C(=O)N[C@@H](Cc1ccccc1)C(=O)N1CCC[C@H]1C(=O)NCC(=O)N[C@@H](CC(N)=O)C(=O)O)[C@@H](C)O` [Tox6, Biot-ACDCRGDCFC-GG-DKRTQFWRYFPGN (hANT2m)] (Biotin-ACDCRGDCFCGGDKRTQFWRYFPGN-OH; N-terminus and C-terminus assumed), for which the “specific binding of VDAC” value with Purified VDAC is recorded as “did not result in any specific binding”. In addition, the “Induction of Mitochondrial swelling (sw)” value in assay [1] is “++”. With Biot- CNGRC-GG-HFAIGCRHSAIG [Ctr1 Tox1], the “Induction of Mitochondrial swelling (sw)” value in assay [1] was “−”. Regarding Biot- CNGRC-GG-HFRIGCRHSRIG [Tox1], the “association of VDAC with the peptide ligand” value with Purified VDAC (VDAC concentrations ten times higher than ANT) was “only extremely low association”. For the same molecule, the “binding to purified ANT (in words)” value at Purified ANT (surface plasmon resonance) is reported as “Binds”. Also, the “Induction of Mitochondrial swelling (sw)” value in assay [1] is “++”. Take Biot-CNGRC-GG-CNGRC [Ctr2 Tox1]: the “Induction of Mitochondrial swelling (sw)” value in assay [1] is “−”. Turning to Biot-GG-HFRIGCRHSRIG [Ctr3 Tox1], the “Induction of Mitochondrial swelling (sw)” value in assay [1] is listed as “+”. As for “Biot-RKKRRQRRR-LASGGAAGATSLCFVYPL (hANT[117-134]) [Save2]”, the “Mitrochondrial swelling (sw) %” value in assay [1] (10 μM + Atr 600 μM) was 16%; in assay [1] (10 μM alone), 2%; in assay [1] (20 μM + Atr 600 μM) it was 16%; in assay [1] (20 μM alone), 16%.

B1: Tox6 (Biot-…-GG-… (hANT2m)) (peptide)
peptide: ACDCRGDCFCGGDKRTQFWRYFPGN
modifications: not checked
Regarding B1, the relative affinity in assay [2] was found to be 0.7 nM.

B2: Tox5 (Biot-CNGRC-GG-… (hANT2m)) (peptide)
peptide: CNGRCGGDKRTQFWRYFPGN
modifications: not checked
In assay [2], B2 gave a relative affinity of 0.1 nM.

B3: Tox0 (Biotin-Vpr52-96) (peptide)
peptide: DTWTGVEALIRILQQLLFIHFRIGCRHSRIGIIQQRRTRNGASKS
modifications: not fully specified (N-terminus)
Turning to B3, the Kd in assay [3] is 0.15 nM.
